Laboratory results as given in US20210317140A1, “Heterocyclic Compounds and Methods of Use” (MEDIVATION TECHNOLOGIES, INC, priority 2013, published 2021).

How the values were obtained:
Type in all cases: biochemical
PI3Kα = target: T1, PI3Kα (Homo sapiens, UniProt P42336); test: PI3Kα isoform profiling (PI3Kδ protocol); conditions: for PI3Kα @ 0.3 μM (% Inh): 0.3 μM compound; for IC50: 10 dose IC50
T1 construct: purchased Reaction Biology Corporation
Excerpt: (§1) PI3Kδ assay: The PIP3 product is detected by displacement of biotin-PIP3 from an energy transfer complex consisting of Europium labeled anti-GST monoclonal antibody, a GST-tagged pleckstrin homology (PH) domain, biotinylated PIP3 and Streptavidin-Allophycocyanin (APC). Excitation of Europium in the complex results in an energy transfer to the APC and a fluorescent emission at 665 nm. The PIP3 product formed by PI 3-Kinase(h) activity displaces biotin-PIP3 from the complex resulting in a loss of energy transfer and thus a decrease in signal. This is a 3-step reaction: First, the kinase reaction with PIP2 substrate is carried out in the presence of ATP (10 μM), and the reaction is quenched with stop Solution, and then finally detect by adding Detection Mixture followed by incubation (10 min). Reaction procedure: 1) Prepare substrate in freshly prepared Reaction Buffer. 2) Deliver kinase into the substrate solution and gently mix. 3) Deliver compounds in 100% DMSO (1 μM) into the kinase reaction mixture by Acoustic technology (Echo550; nanoliter range), incubate for 10 min at RT. 4) Deliver ATP into the reaction mixture to initiate the reaction. 5) Incubate for 30 min at 30° C. 6) Quench the reaction with Stop Solution. 7) Add Detection Mixture, and incubate for overnight. 8) Measure HTRF: Ex=320 nm, ratio of Em=615 nm and Em=665 nm. The emission ratio is converted into μM PIP3 production based on PIP3 standard curves. The nonlinear regression to obtain the standard curve and IC50 values are performed using Graphpad Prism software. Assay Buffer: HEPES 50 mM (pH7.0), NaN3 0.02%, BSA 0.01%, Orthovanadate 0.1 mM, 1% DMSO. Detection buffer: HEPES 10 mM (pH7.0), BSA 0.02%, KF 0.16 M, EDTA 4 mM. Substrate: 10 μM PIP2 substrate (PI(4,5)P2).
(§2) Compounds of the invention were profiled in a 10 dose IC50 panel against PI3Kα, PI3Kβ, and PI3Kγ kinases, provided by Reaction Biology Corporation, applied to the PI3Kδ protocol provided in Example B1.

TEC = target: T2, TEC (Homo sapiens, UniProt P42680); test: TEC kinase profiling (BTK protocol); conditions: for TEC @ 0.3 μM (% Inh): 0.3 μM compound; for IC50: 10 dose IC50
T2 construct: purchased Reaction Biology Corporation
T2 sequence (P42680 1-631): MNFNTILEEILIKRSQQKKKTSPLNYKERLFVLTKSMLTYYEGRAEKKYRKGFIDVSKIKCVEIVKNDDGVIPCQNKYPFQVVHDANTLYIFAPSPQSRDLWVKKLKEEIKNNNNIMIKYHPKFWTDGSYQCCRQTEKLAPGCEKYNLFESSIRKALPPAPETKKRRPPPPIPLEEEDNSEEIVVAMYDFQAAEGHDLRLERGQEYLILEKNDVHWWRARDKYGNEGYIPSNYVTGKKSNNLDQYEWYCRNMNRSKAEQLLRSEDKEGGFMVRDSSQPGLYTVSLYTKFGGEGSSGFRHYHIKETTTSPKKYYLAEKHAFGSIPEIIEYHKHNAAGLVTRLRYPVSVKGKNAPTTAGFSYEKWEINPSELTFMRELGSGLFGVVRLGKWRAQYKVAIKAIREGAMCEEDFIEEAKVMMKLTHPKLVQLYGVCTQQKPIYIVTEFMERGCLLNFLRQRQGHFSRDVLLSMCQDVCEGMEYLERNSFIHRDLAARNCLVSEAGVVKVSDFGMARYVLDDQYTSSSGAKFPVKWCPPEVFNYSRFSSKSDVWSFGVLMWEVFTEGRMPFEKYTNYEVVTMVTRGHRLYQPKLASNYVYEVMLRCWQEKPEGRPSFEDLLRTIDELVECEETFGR
Method: BTK assay: In vitro profiling protein kinases was performed using the “HotSpot” assay platform. Briefly, specific kinase/substrate pairs along with required cofactors were prepared in reaction buffer. Compounds were prepared as 10 mM stock solutions in DMSO. Compounds were delivered into the reaction, followed 15-20 minutes later by addition of a mixture of ATP (Sigma, St. Louis Mo.) and ^33P ATP (Perkin Elmer, Waltham Mass.) to a final concentration of 10 μM. […] IC50 values and curve fits were obtained using Prism (GraphPad Software). Buffer Conditions: 20 mM Hepes (pH 7.5), 10 mM MgCl2, 1 mM EGTA, 0.02% Brij35, 0.02 mg/mL BSA, 0.1 mM Na3VO4, 2 mM DTT, 1% DMSO.

PI3Kδ = target: T3, PI3Kδ (Homo sapiens, UniProt O00329); test: PI3Kδ kinase assay (HTRF, PIP3 detection); conditions: for IC50: 10 dose IC50, 10 μM ATP; for PI3Kδ @ 0.1 μM (% Inh): 0.1 μM compound; for PI3Kδ @ 0.1 μM (% Inh) / PI3Kδ @ 0.01 μM (% Inh) / PI3Kδ @ 1 μM (% Inh): 10 μM ATP; for PI3Kδ @ 0.01 μM (% Inh): 0.01 μM compound; for PI3Kδ @ 1 μM (% Inh): 1 μM compound
T3 construct: purchased Reaction Biology Corporation
T3 sequence (O00329 whole entry): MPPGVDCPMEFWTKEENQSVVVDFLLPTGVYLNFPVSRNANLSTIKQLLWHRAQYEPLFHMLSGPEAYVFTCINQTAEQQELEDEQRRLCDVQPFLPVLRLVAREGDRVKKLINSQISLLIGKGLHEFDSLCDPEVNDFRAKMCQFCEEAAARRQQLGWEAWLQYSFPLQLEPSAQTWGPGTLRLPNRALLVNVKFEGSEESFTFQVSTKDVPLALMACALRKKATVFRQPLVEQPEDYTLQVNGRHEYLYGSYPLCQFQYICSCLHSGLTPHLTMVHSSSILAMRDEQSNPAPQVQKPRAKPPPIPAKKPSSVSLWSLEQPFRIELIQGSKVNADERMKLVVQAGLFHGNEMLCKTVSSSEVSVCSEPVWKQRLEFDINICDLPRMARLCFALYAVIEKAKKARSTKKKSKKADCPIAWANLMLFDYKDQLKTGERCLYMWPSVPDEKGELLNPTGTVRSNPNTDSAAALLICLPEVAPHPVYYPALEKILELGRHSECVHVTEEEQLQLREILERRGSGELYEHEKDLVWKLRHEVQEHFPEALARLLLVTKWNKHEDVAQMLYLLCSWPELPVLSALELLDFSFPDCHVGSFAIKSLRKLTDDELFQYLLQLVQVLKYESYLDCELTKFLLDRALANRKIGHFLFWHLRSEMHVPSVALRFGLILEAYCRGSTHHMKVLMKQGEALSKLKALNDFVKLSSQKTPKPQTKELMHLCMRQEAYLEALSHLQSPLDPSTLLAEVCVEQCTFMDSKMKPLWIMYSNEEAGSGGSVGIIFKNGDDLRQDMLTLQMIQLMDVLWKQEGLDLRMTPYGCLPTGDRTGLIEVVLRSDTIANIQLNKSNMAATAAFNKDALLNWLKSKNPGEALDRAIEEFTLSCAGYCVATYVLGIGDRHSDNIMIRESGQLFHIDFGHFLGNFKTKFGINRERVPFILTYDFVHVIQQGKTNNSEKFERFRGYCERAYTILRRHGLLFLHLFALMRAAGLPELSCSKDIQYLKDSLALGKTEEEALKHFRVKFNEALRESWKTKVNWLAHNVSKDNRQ
T3 sequence (P27986 whole entry partner): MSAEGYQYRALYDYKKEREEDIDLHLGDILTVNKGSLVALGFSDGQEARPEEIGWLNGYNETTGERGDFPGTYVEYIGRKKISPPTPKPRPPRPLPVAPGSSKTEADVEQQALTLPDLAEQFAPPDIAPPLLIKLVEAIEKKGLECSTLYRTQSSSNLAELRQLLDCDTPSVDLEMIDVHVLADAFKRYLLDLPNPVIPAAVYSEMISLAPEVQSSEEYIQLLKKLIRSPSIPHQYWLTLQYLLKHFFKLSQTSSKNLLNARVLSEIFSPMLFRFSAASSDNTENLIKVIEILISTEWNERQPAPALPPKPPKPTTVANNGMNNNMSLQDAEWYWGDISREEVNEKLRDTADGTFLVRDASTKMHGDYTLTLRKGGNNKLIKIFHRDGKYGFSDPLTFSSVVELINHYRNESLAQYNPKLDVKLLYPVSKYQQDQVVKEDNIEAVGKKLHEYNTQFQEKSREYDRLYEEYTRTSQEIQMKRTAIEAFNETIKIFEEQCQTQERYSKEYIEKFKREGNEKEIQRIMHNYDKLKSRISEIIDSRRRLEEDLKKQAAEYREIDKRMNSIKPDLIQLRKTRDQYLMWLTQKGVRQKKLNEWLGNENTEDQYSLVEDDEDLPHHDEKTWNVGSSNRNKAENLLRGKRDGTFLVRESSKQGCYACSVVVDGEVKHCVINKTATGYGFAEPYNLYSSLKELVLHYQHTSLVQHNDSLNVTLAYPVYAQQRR
Procedure, shortened: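 10-dose HTRF assay; kinase preincubated with compound 10 min at RT, then reacted with 10 μM PIP2 and 10 μM ATP for 30 min at 30 °C in HEPES pH 7.0 buffer. PIP3 product displaces biotin-PIP3 from the Eu/APC complex; signal converted to PIP3 via standard curve, IC50 by nonlinear regression.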

PI3Kβ = target: T4, PI3Kβ (Homo sapiens, UniProt P42338); test: PI3Kβ isoform profiling (PI3Kδ protocol); conditions: for PI3Kβ @ 0.3 μM (% Inh): 0.3 μM compound; for IC50: 10 dose IC50
T4 construct: purchased Reaction Biology Corporation
T4 sequence (P42338 whole entry, canonical isoform): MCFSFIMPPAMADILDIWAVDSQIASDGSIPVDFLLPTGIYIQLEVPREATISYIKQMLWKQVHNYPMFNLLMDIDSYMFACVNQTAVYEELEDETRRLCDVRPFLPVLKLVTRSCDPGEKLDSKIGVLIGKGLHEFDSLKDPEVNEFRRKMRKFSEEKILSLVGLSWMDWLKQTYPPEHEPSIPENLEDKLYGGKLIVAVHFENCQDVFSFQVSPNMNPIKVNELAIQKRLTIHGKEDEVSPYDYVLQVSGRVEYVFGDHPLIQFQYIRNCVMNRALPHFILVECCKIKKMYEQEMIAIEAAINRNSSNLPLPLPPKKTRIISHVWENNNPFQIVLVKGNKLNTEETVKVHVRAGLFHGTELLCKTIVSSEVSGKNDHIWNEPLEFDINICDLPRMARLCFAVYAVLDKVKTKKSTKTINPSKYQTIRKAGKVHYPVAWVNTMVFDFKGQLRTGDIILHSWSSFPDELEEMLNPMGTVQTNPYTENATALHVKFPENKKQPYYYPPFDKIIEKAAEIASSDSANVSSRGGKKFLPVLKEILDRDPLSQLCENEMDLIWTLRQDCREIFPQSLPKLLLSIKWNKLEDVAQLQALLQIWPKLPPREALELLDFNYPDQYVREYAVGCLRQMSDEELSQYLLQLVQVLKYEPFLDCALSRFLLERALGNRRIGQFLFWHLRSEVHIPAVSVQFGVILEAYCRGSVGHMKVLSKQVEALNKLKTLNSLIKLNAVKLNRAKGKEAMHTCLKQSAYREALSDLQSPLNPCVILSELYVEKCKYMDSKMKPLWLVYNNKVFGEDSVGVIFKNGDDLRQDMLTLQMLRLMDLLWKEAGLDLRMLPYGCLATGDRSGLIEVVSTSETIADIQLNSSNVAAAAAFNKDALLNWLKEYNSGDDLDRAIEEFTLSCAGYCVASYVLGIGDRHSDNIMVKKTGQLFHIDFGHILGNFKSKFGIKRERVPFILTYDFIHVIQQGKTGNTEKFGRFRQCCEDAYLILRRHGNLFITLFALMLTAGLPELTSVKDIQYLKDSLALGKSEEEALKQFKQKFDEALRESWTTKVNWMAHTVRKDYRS
T4 sequence (P27986 whole entry partner, canonical isoform): as the sequence (P27986 whole entry partner) above
Excerpt: as §1, §2

T1 sequence (P42336 whole entry, canonical isoform): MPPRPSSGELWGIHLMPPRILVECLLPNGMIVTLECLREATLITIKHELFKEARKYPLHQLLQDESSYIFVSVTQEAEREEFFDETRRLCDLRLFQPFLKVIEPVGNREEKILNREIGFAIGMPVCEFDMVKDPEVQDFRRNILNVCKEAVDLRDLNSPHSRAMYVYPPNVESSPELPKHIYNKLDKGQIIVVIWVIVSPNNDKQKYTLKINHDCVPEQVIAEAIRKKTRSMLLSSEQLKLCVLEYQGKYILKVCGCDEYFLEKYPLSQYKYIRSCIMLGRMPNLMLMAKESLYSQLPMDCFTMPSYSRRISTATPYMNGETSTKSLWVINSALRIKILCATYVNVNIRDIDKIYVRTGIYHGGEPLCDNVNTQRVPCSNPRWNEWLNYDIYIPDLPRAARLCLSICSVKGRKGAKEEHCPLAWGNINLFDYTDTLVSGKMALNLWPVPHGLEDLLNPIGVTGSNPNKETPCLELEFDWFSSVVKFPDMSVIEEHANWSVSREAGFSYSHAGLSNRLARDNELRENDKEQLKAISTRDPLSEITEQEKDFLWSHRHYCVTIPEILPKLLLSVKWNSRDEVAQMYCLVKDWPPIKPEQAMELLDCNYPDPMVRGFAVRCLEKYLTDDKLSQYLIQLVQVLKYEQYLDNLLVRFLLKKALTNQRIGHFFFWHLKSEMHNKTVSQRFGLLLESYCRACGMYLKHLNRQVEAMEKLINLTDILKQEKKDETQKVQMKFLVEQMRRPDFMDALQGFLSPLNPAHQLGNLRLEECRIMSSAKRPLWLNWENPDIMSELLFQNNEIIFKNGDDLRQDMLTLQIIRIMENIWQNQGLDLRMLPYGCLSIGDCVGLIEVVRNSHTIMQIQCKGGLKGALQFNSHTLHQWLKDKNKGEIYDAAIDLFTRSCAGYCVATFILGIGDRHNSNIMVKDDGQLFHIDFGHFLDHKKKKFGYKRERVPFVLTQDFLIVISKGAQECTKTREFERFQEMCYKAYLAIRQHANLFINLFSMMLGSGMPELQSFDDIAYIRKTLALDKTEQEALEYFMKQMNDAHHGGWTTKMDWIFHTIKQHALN
T1 sequence (P27986 whole entry partner, canonical isoform): as the sequence (P27986 whole entry partner) above

Row | Structure (SMILES) | PI3Kα @ 0.3 μM (% Inh) (PI3Kα) | TEC @ 0.3 μM (% Inh) (TEC) | IC50 (PI3Kδ) [nM] | PI3Kβ @ 0.3 μM (% Inh) (PI3Kβ) | PI3Kδ @ 0.1 μM (% Inh) (PI3Kδ) | PI3Kα @ 0.3 μM (% Inh) (PI3Kα; 0.3 µM) | TEC @ 0.3 μM (% Inh) (TEC; 0.3 µM) | PI3Kβ @ 0.3 μM (% Inh) (PI3Kβ; 0.3 µM) | IC50 (PI3Kα) [nM] | PI3Kδ @ 0.01 μM (% Inh) (PI3Kδ) | IC50 (TEC) [nM] | IC50 (PI3Kβ) [nM] | PI3Kδ @ 1 μM (% Inh) (PI3Kδ)
1 | Nc1ncnc2c1c(-c1ccc(F)c(O)c1)nn2C1CCc2ccccc2C1 (racemic) [Compound No. 26, 5-(4-amino-1-(1,2,3,4-tetrahydronaphthalen-2-yl)-1H-pyrazolo[3,4-d]pyrimidin-3-yl)-2-fluorophenol] | 53.79 | 66.1 | 66.1 | 37.87 |  |  |  |  |  |  |  |  | 
2 | Nc1ncnc2c1c(-c1ccc3cc[nH]c3c1)nn2C1CCc2ccccc2C1 (racemic) [compound 18, 3-(1H-indol-6-yl)-1-(1,2,3,4-tetrahydronaphthalen-2-yl)-1H-pyrazolo[3,4-d]pyrimidin-4-amine] | 33.14 | 10.01 | 108 | 34.21 | 18.95 |  |  |  |  |  |  |  | 
3 | Nc1ncnc2c1c(-c1cc(O)cc(F)c1)nn2C1CCc2ccccc2C1 (single isomer, unassigned) [6a, 3-(4-amino-1-(1,2,3,4-tetrahydronaphthalen-2-yl)-1H-pyrazolo[3,4-d]pyrimidin-3-yl)-5-fluorophenol] |  |  | 9.1 |  | 77.7 | 85.6 | 41.28 | 55.06 |  |  |  |  | 
4 | Nc1ncnc2c1c(-c1cc(O)cc(F)c1)nn2C1CCc2ccccc2C1 (single isomer, unassigned) [6b, 3-(4-amino-1-(1,2,3,4-tetrahydronaphthalen-2-yl)-1H-pyrazolo[3,4-d]pyrimidin-3-yl)-5-fluorophenol] |  |  | 7.7 |  | 79.6 | 91.35 | 27.3 | 69.23 |  |  |  |  | 
5 | C=CC(=O)N1CC(n2nc(-c3cc(O)cc(F)c3)c3c(N)ncnc32)Cc2cc(C)ccc21 (single isomer, unassigned) [31b, 1-(3-(4-amino-3-(3-fluoro-5-hydroxyphenyl)-1H-pyrazolo[3,4-d]pyrimidin-1-yl)-6-methyl-3,4-dihydroquinolin-1(2H)-yl)prop-2-en-1-one] |  | 56.91 | 10.6 | 32.34 | 78.27 |  |  |  | 249 | 44.15 |  |  | 
6 | Nc1ncnc2c1c(-c1ccc(F)c(O)c1)nn2C1CCc2ccccc2C1 (single isomer, unassigned) [Compound No. 26a, 5-(4-amino-1-(1,2,3,4-tetrahydronaphthalen-2-yl)-1H-pyrazolo[3,4-d]pyrimidin-3-yl)-2-fluorophenol] |  |  | 114 |  | 39.35 |  |  |  | 143 |  | 49.3 | 1120 | 
7 | Nc1ncnc2c1c(-c1ccc(F)c(O)c1)nn2C1CCc2ccccc2C1 (single isomer, unassigned) [Compound No. 26b, 5-(4-amino-1-(1,2,3,4-tetrahydronaphthalen-2-yl)-1H-pyrazolo[3,4-d]pyrimidin-3-yl)-2-fluorophenol] |  |  | 55.2 |  | 47.94 |  |  |  | 161 |  | 82.1 | 787 | 
8 | Nc1ncnc2c1c(-c1ccc(F)c(O)c1)nn2C1Cc2ccccc2C1 [Compound No. 29, 5-(4-amino-1-indan-2-yl-pyrazolo[3,4-d]pyrimidin-3-yl)-2-fluoro-phenol] |  |  | 61.3 |  | 61.73 |  |  |  | 73.1 |  | 20.5 | 418 | 
9 | COc1cc(-c2nn(C3Cc4ccccc4C3)c3ncnc(N)c23)ccc1C [Compound No. 49, 1-(2,3-dihydro-1H-inden-2-yl)-3-(3-methoxy-4-methylphenyl)-1H-pyrazolo[3,4-d]pyrimidin-4-amine] |  | 44.68 | 119 | 19.09 | 57.87 |  |  |  | 504 |  |  |  | 89.73
10 | Nc1ncnc2c1c(-c1ccc(Cl)c(O)c1)nn2C1Cc2ccccc2C1 [Compound No. 56, 5-[4-amino-1-(2,3-dihydro-1H-inden-2-yl)-1H-pyrazolo[3,4-d]pyrimidin-3-yl]-2-chlorophenol] |  | 61.02 | 33.2 | 27.87 | 69.44 |  |  |  | 186 |  |  |  | 99.12
11 | Nc1ncnc2c1c(-c1cc(O)cc(F)c1)cn2C1Cc2ccccc2C1 [Compound No. 63, 3-[4-amino-7-(2,3-dihydro-1H-inden-2-yl)-7H-pyrrolo[2,3-d]pyrimidin-5-yl]-5-fluorophenol] |  | 88.12 | 10.4 | 50.79 | 81.43 |  |  |  | 74.7 |  |  |  | 92.56
12 | COc1ccc(-c2nn(C3Cc4ccccc4C3)c3ncnc(N)c23)cc1O [Compound No. 68, 5-[4-amino-1-(2,3-dihydro-1H-inden-2-yl)-1H-pyrazolo[3,4-d]pyrimidin-3-yl]-2-methoxyphenol] |  | 42.69 | 32.1 | 20.68 | 57.97 |  |  |  | 14 |  |  |  | 87.4
13 | Nc1ncnc2c1c(-c1cc(O)c(F)c(F)c1)nn2C1Cc2ccccc2C1 [Compound No. 81, 5-[4-amino-1-(2,3-dihydro-1H-inden-2-yl)-1H-pyrazolo[3,4-d]pyrimidin-3-yl]-2,3-difluorophenol] |  | 71.22 | 3.5 | 73.05 | 87.14 |  |  |  | 21.1 |  |  |  | 91.62
14 | Nc1ncnc2c1c(-c1ccc(Br)c(O)c1)nn2C1Cc2ccccc2C1 [compound 2, 5-(4-amino-1-(2,3-dihydro-1H-inden-2-yl)-1H-pyrazolo[3,4-d]pyrimidin-3-yl)-2-bromophenol] |  |  |  |  |  |  |  |  | 17.3 |  | 100 |  | 
15 | N#Cc1cc(-c2cn(C3Cc4ccccc4C3)c3ncnc(N)c23)cc(O)c1F [compound 115, 5-[4-amino-7-(2,3-dihydro-1H-inden-2-yl)-7H-pyrrolo[2,3-d]pyrimidin-5-yl]-2-fluoro-3-hydroxybenzonitrile] |  | 48.29 | 1.9 | 68.12 | 93.12 |  |  |  |  | 82.64 |  |  | 
